Among the data in patent US9938222B2 (BRISTOL-MYERS SQUIBB COMPANY, priority 2014, dated 2018) are EC50 values, retold here.

Chain of human GPR120 (Q5NUL3 whole entry): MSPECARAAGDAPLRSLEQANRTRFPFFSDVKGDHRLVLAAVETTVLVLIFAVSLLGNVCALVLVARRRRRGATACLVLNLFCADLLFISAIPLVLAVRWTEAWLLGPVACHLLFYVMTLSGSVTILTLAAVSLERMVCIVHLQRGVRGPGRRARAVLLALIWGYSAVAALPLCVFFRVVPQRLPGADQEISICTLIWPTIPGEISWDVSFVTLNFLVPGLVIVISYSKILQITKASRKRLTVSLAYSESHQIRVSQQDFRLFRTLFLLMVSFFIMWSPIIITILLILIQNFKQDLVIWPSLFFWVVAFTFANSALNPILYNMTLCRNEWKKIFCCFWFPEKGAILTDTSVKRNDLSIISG

This test addresses human GPR120 (Homo sapiens (Human), UniProt Q5NUL3). Briefly: GPR120 pERK AlphaScreen SureFire Assay (human GPR120 pERK assay). It is filed as cell-based. Conditions: CHO cells stably transfected with short form of human GPR120. Summed up:
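CHOA12 cells stably expressing short-form human GPR120, serum-starved 2 h, then stimulated 7 min at 37° C with compound (33.33 μM to 0.56 nM, 11-point). Phospho-ERK1/2 read by AlphaScreen SureFire in lysates. Activation scaled between DMSO and 50 μM linolenic acid; EC50 from a 4-parameter logistic fit.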
In general, EC50 refers to the concentration that produces a half-maximal response. A low value points to a more potent agent. Regarding `CC(C)Sc1ncc(C(F)(F)F)cc1-c1ccc(OC[C@@H]2C[C@H]2C(=O)O)cc1` (racemic) [Example 69, Trans-2-((4-(2-(isopropylthio)-5-(trifluoromethyl)pyridin-3-yl)phenoxy)methyl)cyclopropanecarboxylic acid], the EC50 stood at 10800 nM.

The compound `CC(C)Oc1cc(Cl)cc(-c2ccc(OC[C@H]3C[C@@H]3C(=O)O)c(F)c2)c1` (single isomer, unassigned) [Example 14] yielded a half-maximal effective concentration (EC50) of 830 nM.

Take `CC(C)Oc1ccc(F)c(-c2ccc(OC[C@@H]3C[C@H]3C(=O)O)cc2)c1` (single isomer, unassigned) [Example 3]: the half-maximal effective concentration (EC50) turned out to be 470 nM.

`Cc1nc(-c2ccccc2)c(-c2ccc(CC[C@@H]3C[C@H]3C(=O)O)cc2)s1` (single isomer, unassigned) [Example 27, Trans-2-(4-(2-methyl-4-phenylthiazol-5-yl)phenethyl)cyclopropanecarboxylic acid] yielded an EC50 of 1230 nM.

Compound `CC(C)Oc1ccc(F)c(-c2ccc(C[C@H]3C[C@@H]3CC(=O)O)cc2)c1` (racemic) [Example 33, Trans-2-(2-((2′-fluoro-5′-isopropoxy-[1,1′-biphenyl]-4-yl)methyl)cyclopropyl)acetic acid] yielded a concentration for a half-maximal effect (EC50) of 60 nM.

Compound `CC(C)Oc1ccc(Cl)c(-c2ccc(OC[C@@H]3C[C@H]3C(=O)O)cc2)c1` (racemic) [Example 119, Trans-2-(((2′-chloro-5′-isopropoxy-[1,1′-biphenyl]-4-yl)oxy)methyl) cyclopropanecarboxylic acid] returned a concentration giving a half-maximal response (EC50) of 510 nM.

`CC(C)COc1cc(F)cc(-c2ccc(OC[C@@H]3C[C@H]3C(=O)O)cc2)c1` (racemic) [Example 72, Trans-2-(((3′-fluoro-5′-isobutoxy-[1,1′-biphenyl]-4-yl)oxy)methyl) cyclopropanecarboxylic acid] returned a half-maximal effective concentration (EC50) of 1550 nM.

As for `Cc1ccc(Oc2ccc(F)c(-c3ccc(OCC4C[C@H]4C(=O)O)cc3)c2)cn1` (stereo partly drawn) [Example 115], the concentration giving a half-maximal response (EC50) worked out at 190 nM.

The compound `O=C(O)[C@@H]1C[C@H]1COCc1ccc(-c2cc(Oc3ccccc3)ccc2F)cc1` (racemic) [Example 25, Trans-2-(((2′-fluoro-5′-phenoxy-[1,1′-biphenyl]-4-yl)methoxy)methyl) cyclopropanecarboxylic acid] yielded a half-maximal effective concentration (EC50) of 980 nM.

The compound `O=C(O)[C@@H]1C[C@H]1COc1ccc(-c2cc(F)cc(Oc3ccccc3)c2)cc1` (racemic) [Example 23, Trans-2-(((3′-fluoro-5′-phenoxy-[1,1′-biphenyl]-4-yl)oxy)methyl)cyclopropanecarboxylic acid] showed an EC50 of 660 nM.

For `CC(C)Oc1ccc(F)c(-c2ccc(OC[C@H]3C[C@H]3C(=O)O)cc2)c1` (single isomer, unassigned) [Example 7], the EC50 worked out at 2810 nM.

In the case of `O=C(O)[C@@H]1C[C@H]1CCc1ccc(-c2cccc(-n3cccc3)c2)cc1` (racemic) [Example 129, Trans-2-(2-(3′-(1H-pyrrol-1-yl)-[1,1′-biphenyl]-4-yl)ethyl) cyclopropanecarboxylic acid], the response was half-maximal at 1580 nM (EC50).

In turn, `CC(C)Oc1ccc(F)c(-c2ccc(OC[C@@H]3C[C@H]3C(=O)O)c(C=O)c2)c1` (racemic) [Example 87, Trans-2-(((2′-fluoro-3-formyl-5′-isopropoxy-[1,1′-biphenyl]-4-yl)oxy)methyl) cyclopropanecarboxylic acid] gave an EC50 of 1760 nM.

`CC(C)Oc1ccc(F)c(-c2ccc(OC[C@@H]3C[C@@H]3C(=O)O)cc2)c1` (single isomer, unassigned) [Example 8] displayed an EC50 of 2860 nM.

Turning to `CC(C)Oc1cc(Cl)cc(-c2ccc(CC[C@@H]3C[C@H]3C(=O)O)cc2)c1` (relative stereo) [Example 132, Trans-2-(2-(3′-chloro-5′-isopropoxy-[1,1′-biphenyl]-4-yl)ethyl) cyclopropanecarboxylic acid], the EC50 is 2440 nM.

On to `Cc1nn(Cc2ccc(Cl)cc2)cc1-c1ccc(OC[C@@H]2C[C@H]2C(=O)O)cc1` (racemic) [Example 85, Trans-2-((4-(1-(4-chlorobenzyl)-3-methyl-1H-pyrazol-4-yl)phenoxy)methyl) cyclopropanecarboxylic acid], for which the response was half-maximal at 3810 nM (EC50).

For the compound `Cc1cc(-c2ccc(OC[C@@H]3C[C@H]3C(=O)O)cc2)n(-c2ccc(Cl)cc2)n1` (racemic) [Example 82, Trans-2-((4-(1-(4-chlorophenyl)-3-methyl-1H-pyrazol-5-yl)phenoxy)methyl) cyclopropanecarboxylic acid], the response was half-maximal at 4960 nM (EC50).

Consider `Cc1ccc(Oc2cc(F)c(F)c(-c3ccc(OCC4CC4C(=O)O)c(F)c3)c2)cc1F` (single isomer, unassigned) [Example 109], for which it took 260 nM to reach a half-maximal effect (EC50).

The compound `CC(C)Oc1ccc(Cl)c(-c2ccc(OC[C@@H]3C[C@H]3C(=O)O)c(F)c2)c1` (racemic) [Example 18, Trans-2-(((2′-chloro-3-fluoro-5′-isopropoxy-[1,1′-biphenyl]-4yl)oxy)methyl) cyclopropanecarboxylic acid] gave an EC50 of 210 nM.

On to `CC(C)Oc1cc(Cl)cc(-c2ccc(OC[C@H]3C[C@@H]3C(=O)O)c(F)c2)c1` (racemic) [Example 12, Trans-2-(((3′-chloro-3-fluoro-5′-isopropoxy-[1,1′-biphenyl]-4-yl)oxy)methyl) cyclopropanecarboxylic acid], for which the half-maximal effective concentration (EC50) worked out at 310 nM.

Compound `O=C(O)[C@@H]1CC1COc1ccc(-c2cc(Oc3cccc(F)c3)cnc2Cl)cc1` (stereo partly drawn) [Example 112] returned a concentration giving a half-maximal response (EC50) of 210 nM.

Turning to `O=C(O)[C@@H]1C[C@H]1COc1ccc(-c2cc(Cl)cc(OC(F)(F)F)c2)cc1` (racemic) [Example 48, Trans-2-(((3′-chloro-5′-(trifluoromethoxy)-[1,1′-biphenyl]-4-yl)oxy)methyl)cyclopropanecarboxylic acid], the response was half-maximal at 760 nM (EC50).

The compound `O=C(O)[C@@H]1C[C@H]1COc1ccc(-c2cc(OC(F)(F)F)ccc2Cl)cc1` (racemic) [Example 54, Trans-2-(((2′-chloro-5′-(trifluoromethoxy)-[1,1′-biphenyl]-4-yl)oxy)methyl)cyclopropanecarboxylic acid] gave a concentration giving a half-maximal response (EC50) of 500 nM.

In turn, `COc1cc(OC(F)(F)F)cc(-c2ccc(OC[C@@H]3C[C@H]3C(=O)O)cc2)c1` (racemic) [Example 74, Trans-2-(((3′-methoxy-5′-(trifluoromethoxy)-[1,1′-biphenyl]-4-yl)oxy)methyl)cyclopropanecarboxylic acid] registered an EC50 of 610 nM.

`O=C(O)[C@@H]1C[C@H]1COc1ccc(-c2cc(Oc3cccc(F)c3)ccc2F)cc1F` (relative stereo) [Example 96, Trans-2-(((2′,3-difluoro-5′-(3-fluorophenoxy)-[1,1′-biphenyl]-4-yl)oxy)methyl) cyclopropanecarboxylic acid] registered an EC50 of 180 nM.

As to `O=C(O)[C@@H]1C[C@H]1CCc1ccc(-c2cccc(Oc3ccccc3)c2)cc1` (racemic) [Example 75, Trans-2-(2-(3′-phenoxy-[1,1′-biphenyl]-4-yl)ethyl) cyclopropanecarboxylic acid], the EC50 was 180 nM.

In the case of `CC(C)Oc1cc(F)cc(-c2ccc(OC[C@@H]3C[C@H]3C(=O)O)cc2F)c1` (racemic) [Example 60, Trans-2-(((2,3′-difluoro-5′-isopropoxy-[1,1′-biphenyl]-4-yl)oxy)methyl) cyclopropanecarboxylic acid], the EC50 came out at 570 nM.
